# Measured values taken from a melting point compilation (Tetko et al.).
row,melting point [°C],Compound
1,99.5,CC(=O)CC(=O)C(=O)O
2,111,CC(=O)c1cc2cc(Br)ccc2o1
3,50 to 52,Cc1nsc(-c2ccccc2)n1
4,120,C[Si](C)(C)C#Cc1ccc(C#C[Si](C)(C)C)cc1
5,158 to 160,Cc1n[nH]c(SCC#N)n1
6,139,O=Cc1ccc(O)c(Cl)c1
7,158,COc1cc(O)ccc1C=O
8,136,CC(OC(=O)Nc1ccccc1)c1cccc(C(C)OC(=O)Nc2ccccc2)c1 (centres undefined)
9,-72.6,C=C(C)CC(C)=O
10,188 to 190,CC(=O)Nc1ccccc1CCN(CCc1ccccc1NC(C)=O)C(C)=O
11,99,COc1ccc(Cl)cc1C(=O)O
12,145 to 149,FC(F)(F)c1cnc(S)c(Cl)c1
13,217 to 218,C/C(=N\CC(O)CO)c1c(O)c2ccccc2n(-c2ccccc2)c1=O (centres undefined)
14,212,Cc1cncc(C(=O)O)c1
15,156,Cc1nc(C(C)(C)C)sc1C(=O)O
16,164 to 169,O=C(O)c1ccccc1S
17,74 to 76,Cc1nn(C)c(N2CCOCC2)c1C=O
18,59 to 61,COC(=O)c1ccc(OC)c(OC2CCCC2)c1
19,193,Cc1noc(NS(=O)(=O)c2ccc(N)cc2)c1C
20,75 to 76,O=S(=O)(Cl)c1cc2ccccc2s1
21,123,Cn1c(=O)on(-c2ccc(Cl)c(Cl)c2)c1=O
22,255 to 258,CC(=O)Nc1cc(Cl)c(Cl)cc1NC(C)=O
23,233 to 235,O=C(O)C=Cc1ccc(Sc2ccc(Cl)cc2)c([N+](=O)[O-])c1

row,melting point [°C],Compound
1,188,Nc1ccc2[nH]c(C(F)(F)F)nc2c1
2,260 to 263,Cc1csc(-c2cn(C(C)C)c(=O)n(CC(=O)NN)c2=O)n1
3,99 to 102,Cc1nc(-c2ccccc2)sc1CO
4,72 to 74,CC(C)Nc1ccc(Cl)cc1[N+](=O)[O-]
5,53,Cc1cc(C#N)ccc1Br
6,154,O=C(CNc1ccccc1)Nc1ccc(Br)cc1
7,84,CCCc1nc(OC(C)=O)n(-c2ccccc2)n1
8,38,COC(=O)CCCCCCCCC(=O)OC
9,128,CCCc1ccc(OCC(=O)N2CCN(C(=O)COc3ccc(CCC)cc3OC)CC2)c(OC)c1
10,68.5 to 69.5,O=C(Oc1c(F)c(F)c(F)c(F)c1F)c1cccc(-c2nccs2)c1
11,93 to 96,O=C(Cl)c1ccc2snnc2c1
12,53,C[C@H](O)C(=O)O
13,16.4,CCCCCCC(=O)c1ccccc1
14,91.4 to 93.8,O=C(CCl)NCc1ccc2c(c1)OCO2
15,54 to 58,OCCNc1nccnc1Cl
16,58,COc1c(Cl)cccc1[N+](=O)[O-]
17,220 to 223,O=C(O)Cc1n[nH]c(=O)c2ccccc12
18,160,Cc1nn(-c2ccccc2)nc1C(=O)NO
19,148 to 150,O=C(Nc1cccnc1Cl)c1ccc(Cl)cc1Cl
20,57 to 59,COC(=O)c1sccc1N=C=S
21,179,O=C(O)c1cccc(O)c1[N+](=O)[O-]
22,204,CC(C)(C)N(NC(=O)c1ccccc1)C(=O)c1cccc(C(F)(F)F)c1
23,320,Cc1cc2nc3c(=O)[nH]c(=O)nc-3n(C)c2cc1C

row,melting point [°C],Compound
1,138 to 140,Cc1nc2scc(-c3ccccc3)c2c(=O)n1NC(=O)c1ccc(F)cc1
2,68 to 72,CCOc1c(NCc2ccccc2)c(=O)c1=O
3,183 to 184,Cc1cc(C)nc(NNC=Cc2ccc([N+](=O)[O-])cc2)n1
4,175,NC(=O)/C(=N\Nc1c(Cl)cccc1Cl)c1nc2ccccc2s1
5,182,CCOC(=O)c1cnn(C)c1S(=O)(=O)NC(=O)Nc1nc(OC)cc(OC)n1
6,85 to 88,CC(C)(C)OC(=O)N[C@@H](CSCc1ccccc1)C(=O)O
7,114 to 115,COC(=O)C1(C(=O)OC)C=C(OC)c2ccccc21
8,142 to 143,CCOC(=O)c1c(SC)n[nH]c1N
9,15.8,COc1ccc(C(C)=O)c(OC)c1OC
10,-42,C/C=C/C(=O)OC
11,138 to 142,Cc1cccc(C(=O)NCC(=O)O)c1
12,310 to 312,FC(F)(F)c1cc(Cl)c2nc(S)[nH]c2c1
13,201 to 202,N#Cc1c(NC(=O)c2ccc(Cl)cc2Cl)sc2c1CCCC2
14,118,O=C(O)C(CO)c1ccccc1 (centres undefined)
15,140,Nc1ccc(C(=O)O)c(N)c1
16,166 to 168,CC1NC(C(=O)O)C(C)(C)S1 (mixture of isomers)
17,109,C(=C(/c1ccccc1)c1nc2ccccc2s1)/c1ccccc1
18,153,O=C(/C=C/c1ccc(Cl)c(Cl)c1)c1ccc2ccccc2c1
19,76.5,CC(/N=N/c1cc(Cl)cc(Cl)c1O)=C(/C(=O)N1CCOCC1)N1CCOCC1
20,144,COc1cc(OC)cc(C(N)=O)c1
21,281,Cn1nc(CCNC(=O)c2cc([N+](=O)[O-])cc([N+](=O)[O-])c2)c2c(N)ncnc21
22,138,Nc1nc(=O)n(C2CSC(CO)O2)cc1F (centres undefined)

# Second part, the compound before the results:
row,Compound,melting point [°C]
1,S=C1NC2=C(CCCC2=Cc2ccccc2)C(c2ccccc2)N1 (centres undefined),190 to 192
2,CC1(C)CCC(Cc2ccc(Cl)cc2)C1(O)Cn1cncn1 (centres undefined),112
3,O=CC(C=O)c1ccncc1,320
4,OCCN(CCO)c1nc(N2CCCCC2)c2nc(N(CCO)CCO)nc(N3CCCCC3)c2n1,163
5,CC(NC(=O)CCCCNC(=O)C12CC3CC(CC(C3)C1)C2)C(=O)NC(CCC(=O)O)C(N)=O (centres undefined),200
6,N#Cc1ccc(N2CCC(C(=O)NN)CC2)cc1,198 to 202
7,O=[N+]([O-])c1c[nH]cn1,303
8,COc1c(Br)ccc2c1C(=O)C2,118
9,Clc1ccc(C=NCCN=Cc2ccc(Cl)cc2)cc1,125
10,Cn1c(C(C#N)c2ncccc2[N+](=O)[O-])nc2ccccc21 (centres undefined),214
11,O=C1NC(=O)C(=Cc2ccc(Cl)cc2)C(=O)N1,243
12,COS(=O)(=O)Cl,-70
13,CN(N=O)C(N)=O,121
14,C#CC1(O)CCC2C3CCC4=CC(=O)CCC4C3CCC21CC (centres undefined),240
15,ClCc1cc(Br)cc2c1OCOC2,103
16,ClCc1csc2ccc(Br)cc12,106 to 108
17,O=[N+]([O-])c1c(Cl)cccc1Cl,72.5
18,N#CC1=C(N)n2nc(C(F)(F)F)nc2NC1c1c(Cl)cccc1Cl (centres undefined),323
19,CC12CCCCC1CCC1C2CCC2(C)C1CCC2(O)C#Cc1ccccc1 (centres undefined),108 to 111
20,c1ccc(-c2oc(-c3ccccc3)c(-c3ccccc3)c2-c2ccccc2)cc1,175
21,Nc1ccc(Oc2c(Cl)cccc2Cl)nc1,120 to 122

row,Compound,melting point [°C]
1,O=C=Nc1ccc(-c2ncccn2)cc1,85.5 to 87.5
2,Nc1ncccc1[N+](=O)[O-],166
3,Nc1c(C=Cc2ccccc2)ccc2c1C(=O)c1ccccc1C2=O,214
4,NC(=O)NC=O,170 to 173
5,Cc1ccc(S(=O)(=O)OCC#N)cc1,50 to 51
6,COC(=O)c1sccc1S(=O)(=O)NC(=O)Nc1nc(C)nc(OC)n1,176
7,Nc1c(Br)cc(F)c(F)c1F,58 to 60
8,O=C1CCc2cc3c(cc2N1)NCCC3,235
9,N#Cc1cc(F)ccc1Br,90
10,O=C(O)C(O)(c1ccccc1Cl)c1ccccc1Cl,162
11,COCCCl,-55
12,NNC(=S)NCCN1CCOCC1,166
13,N#Cc1c(N=[N+]([O-])c2cnn(-c3ccccc3)c2C#N)cnn1-c1ccccc1,265
14,CN(C)c1ccc(C=C(C#N)c2ccc(Cl)c(Cl)c2)cc1,213 to 214
15,CC(Br)C(=O)O (centres undefined),25
16,COc1ccc(OCC2CO2)cc1 (centres undefined),47
17,O=C(O)C(F)(F)C(F)(F)C(F)(F)C(F)(F)C(F)(F)C(F)F,34
18,C=Cc1ccccc1-c1cn[nH]c1,114
19,Cc1ccccc1N,-16.3
20,O=C1c2ccccc2S(=O)(=O)N1CCCCN1CCN(c2ncccn2)CC1,137
21,C=COCCCCCCCCCCCCCCCC,16

row,Compound,melting point [°C]
1,CC1(C)CC(=O)C2=C(C1)Nc1c(ccc3ccccc13)C2c1ccc(Cl)cc1Cl (centres undefined),222
2,NCc1ccc(N2CCCC2)cc1,37 to 44
3,N#Cc1cccnc1Sc1ccccc1,105 to 107
4,Cn1cccc1-c1nnc(S)n1-c1ccc(Cl)cc1Cl,252 to 256
5,Cc1ccc(NN=C2C(=O)NC(=S)NC2=O)cc1,305
6,Nc1cc2ccccc2cc1O,235
7,Oc1ccc(/C=C/c2ccccc2)cc1,185 to 189
8,CC12CCC(=O)C(O)=C1CCC1C2CCC2(C)C1CCC2(C)O (centres undefined),170
9,OCc1ccccc1CN1CCOCC1,59
10,COCCc1ccc(O)cc1,44
11,Clc1cc(Cl)c2oc3c(Cl)c(Cl)ccc3c2c1,164
12,O=C(NCc1ccc(Cl)cc1)c1cc([N+](=O)[O-])cc([N+](=O)[O-])c1,200 to 202
13,O=Cc1ccc(-c2ccc(C(F)(F)F)cn2)cc1,91 to 93
14,O=Cc1ccccc1OCc1cccc(Cl)c1,38 to 41
15,Clc1ccc2c(c1)Oc1cc(Cl)c(Cl)cc1O2,162
16,N#CC(=CN1CCOCC1)C(N)=O,173 to 177
17,C1COCO1,-26
18,O=Cc1ccc(-c2ccc(Br)cc2)o1,150 to 155
19,O=[N+]([O-])c1cc(Cl)c(Cl)cc1Nc1ccccn1,156
